According to patent US20250270173A1, “PYRIDINE DERIVATIVES FOR TREATING PSYCHIATRIC DISORDERS” (GILGAMESH PHARMACEUTICALS, INC., priority 2022, published 2025):
Where two headings read alike, the source gives them in different places.

Key:
5-HT2A receptor [1] = molecular target: T1, 5-HT2A receptor (Homo sapiens (Human), UniProt P28223); test: FLIPR Ca2+ flux functional assay at 5-HT2A (HEK293); details: for 5-HT2A % Act @ Max Conc.: HEK293, at max concentration
5-HT1A receptor = 5-HT1A receptor (Homo sapiens (Human), UniProt P08908); test: FLIPR Ca2+ flux functional assay at 5-HT1A (CHO cells); details: for 5-HT1A % Act @ Max Conc.: at max concentration
5-HT2B receptor = 5-HT2B receptor (Homo sapiens (Human), UniProt P41595); test: FLIPR Ca2+ flux functional assay at 5-HT2B (HEK293); details: for 5-HT2B % Act @ Max Conc.: HEK293, at max concentration
human 5-HT2C receptor = human 5-HT2C receptor (Homo sapiens (Human), UniProt P28335); test: FLIPR Ca2+ flux functional assay at 5-HT2C (Eurofins DiscoverX); type: cell-based; details: Ca2+ flux, human 5-HT2C, at max concentration
C57BL/6 mice = test: Automated (video tracking) head twitch response (HTR) assay in mice; type: in vivo; details: SC
Procedure: Disclosed compounds were tested for their ability to induce a head twitch response (HTR) in mice using an automated video tracking procedure, with the results summarized in Table 5. […] The phenyl Compound 44 was substantially more efficacious at inducing HTR than its pyridine counterpart Compound 29, in agreement with the generally lower maximal efficacy of the disclosed pyridine compounds for signaling through 5-HT2A receptors.
Animals. Adult male C57BL/6 mice aged 8-10 weeks (body weight 20-25 g) were used in these experiments. Animals were housed under controlled temperatures and 12-hour light/dark cycles (lights on between 07:00-19:00 h), with ad libitum food and water. The protocol was approved by the Institutional Animal Care and Use Committee at the study site. This study was carried out in strict accordance with the recommendations in the Guide for the Care and Use of Laboratory Animals of the National Institutes of Health. All efforts were made to minimize suffering.
Drugs and Drug Administration. […] was commercially obtained. Disclosed compounds were synthesized as described above. They were administered subcutaneously (SC) dissolved in saline (or saline acidified with 1-2 molar equivalents HCl to form the salt in situ for freebase compounds) at a volume of 10 mL/kg. Five doses were tested, with N=5-8 animals/group. Doses were calculated on the basis of the freebase, except for DOI, which was calculated based on the HCl salt.
Procedure. Mice were administered one dose of the drug and immediately placed into a small open field for behavioral observation. High-speed video of animals' behavior was captured continuously for 20 min. Video recordings were imported into an image processing software, which detects multiple points of interest on each animal's body, including the left and right ear. HTR events were defined as periodic deviations of ear locations from temporally averaged ear locations. Predefined thresholds for magnitude and frequency of location deviations were used to filter […] events from random head movements. The method was validated by comparing detected events with manual (human) observations and found to have an accuracy >95%. The total number of HTR events counted during the 20-min recording were determined for each animal at each dose.
Statistical Analysis. Analysis was performed using GraphPad Prism 9. Dose-response curves were fit via non-linear regression using the Gaussian 2020 function in Prism in order to determine the ED50 and Emax for each compound.

5-HT2A receptor [2] = molecular target: T1, 5-HT2A receptor; test: 5-HT2A receptor radioligand binding with [3H]ketanserin; details: read-out: Ki at 5-HT2A Receptor (nM) ([3H]ketanserin); HEK293 stable cell line, 1 nM [3H]ketanserin, 1 h, 25 °C

Chain of 5-HT2B receptor (P41595 whole entry, looked up): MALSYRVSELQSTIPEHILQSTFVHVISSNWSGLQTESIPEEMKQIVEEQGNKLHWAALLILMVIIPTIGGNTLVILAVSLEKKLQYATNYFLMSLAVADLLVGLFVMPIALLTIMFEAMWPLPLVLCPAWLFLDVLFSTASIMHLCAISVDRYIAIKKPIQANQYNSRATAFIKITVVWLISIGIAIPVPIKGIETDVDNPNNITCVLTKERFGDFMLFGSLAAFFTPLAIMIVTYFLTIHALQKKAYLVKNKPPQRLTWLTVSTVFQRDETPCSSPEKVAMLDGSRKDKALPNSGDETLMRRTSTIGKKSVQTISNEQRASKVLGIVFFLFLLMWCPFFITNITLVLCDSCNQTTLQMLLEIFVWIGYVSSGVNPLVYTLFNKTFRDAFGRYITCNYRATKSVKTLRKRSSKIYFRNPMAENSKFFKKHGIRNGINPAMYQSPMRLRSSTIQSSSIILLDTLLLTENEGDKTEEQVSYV
Chain of human 5-HT2C receptor (P28335 whole entry, looked up): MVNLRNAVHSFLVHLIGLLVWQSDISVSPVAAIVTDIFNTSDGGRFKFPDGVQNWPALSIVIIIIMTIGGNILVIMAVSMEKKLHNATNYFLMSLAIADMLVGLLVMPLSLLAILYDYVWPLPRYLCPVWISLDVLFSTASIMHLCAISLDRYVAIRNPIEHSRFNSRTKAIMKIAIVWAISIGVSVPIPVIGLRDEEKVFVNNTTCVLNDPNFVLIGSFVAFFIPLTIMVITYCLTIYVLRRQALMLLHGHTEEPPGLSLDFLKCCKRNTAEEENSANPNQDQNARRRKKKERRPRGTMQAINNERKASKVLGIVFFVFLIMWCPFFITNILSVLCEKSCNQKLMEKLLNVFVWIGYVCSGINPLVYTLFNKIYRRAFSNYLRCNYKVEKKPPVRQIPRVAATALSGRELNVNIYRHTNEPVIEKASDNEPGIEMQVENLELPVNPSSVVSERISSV

Row | Structure (SMILES) | EC50 (5-HT2A receptor [1]) [nM] | 5-HT2A % Act @ Max Conc. (5-HT2A receptor [1]; Ca2+ flux) [%] | EC50 (5-HT1A receptor) [µM] | 5-HT1A % Act @ Max Conc. (5-HT1A receptor; Ca2+ flux, CHO cells) [%] | EC50 (5-HT2B receptor) [nM] | 5-HT2B % Act @ Max Conc. (5-HT2B receptor; Ca2+ flux) [%] | 5-HT2C % Act @ Max Conc. (human 5-HT2C receptor) [%] | ED50 (C57BL/6 mice; Mus musculus, 20 min, 20 min recording, read-out: ED50) [mg/kg] | Emax (HTR counts/20 min) (C57BL/6 mice) | # HTR/20 min at Most Efficacious Dose (C57BL/6 mice; at most efficacious dose) [HTR/20 min] | Most Efficacious Dose; mg/kg (C57BL/6 mice; dose giving the most HTR) | EC50 (5-HT2A receptor [1]; read-out: 5-HT2A EC50, Ca2+ flux, HEK293) [nM] | EC50 (5-HT1A receptor; read-out: 5-HT1A EC50, Ca2+ flux, CHO cells) [µM] | EC50 (5-HT2B receptor; read-out: 5-HT2B EC50, Ca2+ flux, HEK293) [nM] | Ki (5-HT2A receptor [2]) [nM]
1 | COc1cc(C)c(OC)nc1CCN [Compound 8, 2-(3,6-dimethoxy-5-methylpyridin-2-yl)ethan-1-amine] | 65.8 | 85.81 | > 100 | −0.62 | 1010 | 36.99 |  |  |  |  |  |  |  |  | 
2 | CCCCCCc1cc(OC)c(CCN)cc1OC [Compound 44, reference compound] |  | 90.51 |  | 183.21 |  | 46.79 | 82.62 | 1.36 | 57.87 | 58.0 | (3.2) mg/kg |  |  |  | 
3 | COc1cc(CCN)c(OC)cc1Br [Compound 2C-B, 2C-B, reference compound] |  | 99.7 |  | 47.8 |  | 73.3 |  |  |  |  |  | 0.478 | 33.1 | 20 | 8.25
4 | CCCCCc1nc(OC)c(CC(N)CC)cc1OC (stereo not drawn) [Compound 11, 1-(2,5-dimethoxy-6-pentylpyridin-3-yl)butan-2-amine] | 356 | 62.2 | 19.2 | 197 |  | 6.92 |  |  |  |  |  |  |  |  | 
5 | COc1cc(Br)c(OC)nc1CC(C)N (stereo not drawn) [Compound 6, 1-(5-bromo-3,6-dimethoxypyridin-2-yl)propan-2-amine] | 2.13 | 95.6 | > 100 | 1.66 | 170 | 70.54 |  |  |  |  |  |  |  |  | 
6 | CCC(N)Cc1nc(OC)c(C)cc1OC (stereo not drawn) [Compound 2, 1-(3,6-dimethoxy-5-methylpyridin-2-yl)butan-2-amine] | 847 | 69.78 |  |  |  |  |  |  |  |  |  |  |  |  | 
7 | COc1cc(C)c(OC)nc1CC(C)N (stereo not drawn) [Compound 5, 1-(3,6-dimethoxy-5-methylpyridin-2-yl)propan-2-amine] | 30 | 104.25 | > 100 | 0.59 | 575 | 68.46 |  |  |  |  |  |  |  |  | 
8 | CCSc1cc(OC)c(CCN)nc1OC [Compound 22, 2-(5-(ethylthio)-3,6-dimethoxypyridin-2-yl)ethan-1-amine] | 4.09 | 94.73 | > 100 | −1.51 | 215 | 22.75 |  |  |  |  |  |  |  |  | 
9 | CCC(N)Cc1nc(OC)c(Br)cc1OC (stereo not drawn) [Compound 3, 1-(5-bromo-3,6-dimethoxypyridin-2-yl)butan-2-amine] | 136 | 70.17 |  |  |  |  |  |  |  |  |  |  |  |  | 
10 | CCSc1cc(OC)c(CC(N)CC)nc1OC (stereo not drawn) [Compound 24, 1-(5-(ethylthio)-3,6-dimethoxypyridin-2-yl)butan-2-amine] | 74.6 | 77.03 | > 100 | 2.99 | > 10000 | 14.99 |  |  |  |  |  |  |  |  | 
11 | CCSc1cc(OC)c(CC(C)N)nc1OC (stereo not drawn) [Compound 23, 1-(5-(ethylthio)-3,6-dimethoxypyridin-2-yl)propan-2-amine] | 3.03 | 106.2 | > 100 | 3.21 | 44.5 | 67.46 |  |  |  |  |  |  |  |  | 
12 | COc1cc(C2CC2)c(OC)nc1CCN [Compound 26, 2-(5-cyclopropyl-3,6-dimethoxypyridin-2-yl)ethan-1-amine] | 27 | 81.58 | > 100 | 2.22 | > 10000 | 5.16 |  |  |  |  |  |  |  |  | 
